Test results reported in PubChem BioAssay AID179 (DTP/NCI, 2004).
The source made the active and inactive calls.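 How the source made its calls: active means compounds giving half or more protection of infected cells from virus-caused growth loss, again on retest; inactive means the rest.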 Where a SMILES comes first, the peptide text is derived from it. [ ]: non-standard residue; d: D form. The star is where a group is joined. ξ: configuration not given here. ξD = NC(CC(=O)O)C(=O)O; Boc = CC(C)(C)OC(=O)*; Aib = CC(C)(N)C(=O)O; OBn = c1ccc(CO*)cc1

System: CEM cells HIV-1 protection, formazan growth assay
Assay: NCI AIDS Antiviral Assay
Conditions: for IC50: measured here: growth of uninfected CEM cells
Summary of the method: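 Five concentrations of each compound were applied to infected and uninfected human CEM cells. Protection from HIV-1 was judged from growth measured with a soluble formazan assay.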

SMILES: CCOC(=O)/C(=C/c1ccc([N+](=O)[O-])cc1)C(=O)c1ccccc1
- EC50: > 22.4 µM
- IC50: 13.5 µM

SMILES: COCc1cn(C2C=CC(CO)O2)c(=O)[nH]c1=O (stereo unspecified)
- EC50: 17.4 µM
- IC50: 123 µM

SMILES: OC1CSCCCSCC(O)CSCCCSC1 (stereo unspecified)
- EC50: > 759 µM
- IC50: 389 µM

SMILES: O=c1[nH]c(=O)n(COCCO)c2ccsc12
- EC50: > 200 µM
- IC50: > 200 µM

SMILES: O=[N+]([O-])c1cnc(/C=[N+](\[O-])CCO)n1CCO
- outcome: inactive

SMILES: CCCCOC(=O)C1OC12CCCCC2 (stereo unspecified)
- EC50: > 200 µM
- IC50: 151 µM

SMILES: CCCC(=O)Sc1ccccc1C(=O)Nc1ccc(S(=O)(=O)NC(C)=O)cc1
- EC50: 28.2 µM
- IC50: 112 µM

SMILES: [Cu+2].c1nnc(N2CNCCNCN(c3nnc[n-]3)CNCCNC2)[n-]1
- EC50: > 200 µM
- IC50: > 200 µM

SMILES: CCOC(=O)C1=C(C)NC(CO)=C(C(=O)OCC)C1c1cccc([N+](=O)[O-])c1 (stereo unspecified)
- EC50: > 2 µM
- IC50: 0.355 µM

SMILES: CCCCCCCCCCCCCCCCN1CCCCCC1=O
- EC50: > 77.6 µM
- IC50: > 77.6 µM

SMILES: CCOC(=O)NN(C(=O)OCC)C(C(=O)c1ccccc1)N(NC(=O)OCC)C(=O)OCC
- EC50: > 200 µM
- IC50: > 200 µM

SMILES: CCN1CCC(O)(c2ccc(Oc3ccc(F)cc3)cc2)C(C(=O)c2ccc(Oc3ccc(F)cc3)cc2)C1 (stereo unspecified)
- EC50: > 200 µM
- IC50: 9.33 µM

SMILES: O=c1[nH]c2ccccc2c(=O)n1/N=C\c1ccccc1O
- EC50: > 200 µM
- IC50: > 200 µM

SMILES: Cc1ccc2c(c1)sc1nnc(Cl)n12
- EC50: > 200 µM
- IC50: > 200 µM

SMILES: Nc1nccc(Nc2ccc(S(N)(=O)=O)cc2)n1
- EC50: > 200 µM
- IC50: 135 µM

SMILES: COC(CCC(C)C1OC23CC(OC(=O)CC(C(C)O)OC(=O)CC(O)(O2)C(C)CC3(C)C)C1C)c1cccc(O)c1 (stereo unspecified)
- outcome: active

SMILES: COc1ccc(/C(O)=C/c2nc3ccccc3n2C)cc1
- EC50: > 178 µM
- IC50: 74.1 µM

SMILES: CC[N+]1(CC)CC[N+]2(CCCC(C)CC2)CC1 (stereo unspecified)
- outcome: inactive

SMILES: CCN(CC)CCOc1ccc(C(=C2CCCCC2)c2ccc(OCCN(CC)CC)cc2)cc1
- EC50: > 38.9 µM
- IC50: 2.19 µM

SMILES: NC(=O)C(=CNC(=S)NCc1ccccc1)C(N)=O
- EC50: > 200 µM
- IC50: > 200 µM

SMILES: COC(=O)c1oc(-c2ccccc2)c(-c2ccccc2)c1C(=O)OC
- EC50: > 200 µM
- IC50: 74.1 µM

SMILES: C=C1CCC(CC[C@@H]2CC[C@]3(OC2)O[C@@]2(O)CC[C@]3(C)OC2(C)C)C(C)(C)[C@H]1C/C=C1/C(=O)OC[C@@H]1O (stereo partly specified)
- outcome: inactive

SMILES: O=C(Nc1cccc(F)c1)c1c(O)[nH]c(=S)[nH]c1=O
- EC50: > 5.13 µM
- IC50: > 5.13 µM

SMILES: COc1nc(N)c(NC2OC(CO)C(O)C(O)C2O)c(=O)n1C (stereo unspecified)
- outcome: inactive

SMILES: CCOC(=O)c1ccc(N=Nc2ccc(N(CCC#N)CCC#N)cc2C)cc1
- EC50: > 9.77 µM
- IC50: > 9.77 µM

SMILES: Nc1nc(Cl)c2ncn(C3C=CC(CO)CC3)c2n1 (stereo unspecified)
- EC50: > 200 µM
- IC50: 97.7 µM

SMILES: CC(C)(C)OC(=O)NC(CC(=O)OCc1ccccc1)C(=O)NC(C)(C)C(N)=O (stereo unspecified) (Boc-[ξD](OBn)-[Aib]-NH2)
- EC50: > 200 µM
- IC50: > 200 µM

SMILES: Cn1c(=O)c2c(nc(NCC[N+](C)(C)Cc3ccc(Cl)cc3)n2C)n(C)c1=O
- EC50: > 295 µM
- IC50: > 295 µM

SMILES: CC(=O)CCNc1ccc(-c2cc(-c3ccc(N(C)C)cc3)nc3ccc4ccccc4c23)cc1
- EC50: > 200 µM
- IC50: 102 µM

SMILES: O=[N+]([O-])c1cc(NN=C(c2ccccc2)c2ccccc2)cc([N+](=O)[O-])c1
- EC50: > 3.98 µM
- IC50: > 3.98 µM

SMILES: Cc1nc(-n2nc(-c3ccccc3)cc2-c2ccccc2)sc1C(/C=C/c1ccc([N+](=O)[O-])cc1)=N/NC(=O)c1ccncc1
- EC50: > 42.7 µM
- IC50: 37.2 µM

SMILES: N#CC(=C=[N-])[n+]1ccc(Cl)cc1
- outcome: inactive

SMILES: COCc1cn(C2CCC(CO)O2)c(=O)nc1N (stereo unspecified)
- EC50: > 490 µM
- IC50: > 490 µM

SMILES: Cn1c(COc2ccc(/C=N/NC(=O)CCC(=O)N/N=C/c3ccc(OCc4c[n+]5ccccc5n4C)cc3)cc2)c[n+]2ccccc12
- EC50: 13.5 µM
- IC50: 19.1 µM

SMILES: CN(C)c1ccc(/C=C2\CCOC2=O)cc1
- EC50: > 17.4 µM
- IC50: > 17.4 µM

SMILES: C=CCCCC1(C)CCNC1=S (stereo unspecified)
- EC50: > 513 µM
- IC50: > 513 µM

SMILES: O=c1cc(NNc2cccc(Cl)c2)[nH]c(=O)[nH]1
- EC50: > 200 µM
- IC50: 1.05 µM

SMILES: CC(C)C(N)=Nc1ccc(Cl)c(Cl)c1
- EC50: > 200 µM
- IC50: 72.4 µM

SMILES: O=C1C=C/C(=C/[C@H]2SSC=C[C@]23C=CC(=O)C3)C1
- EC50: > 200 µM
- IC50: 2.63 µM

SMILES: c1ccc(-c2nc(-c3ccccc3)n3c(-c4ccccc4)nnc3n2)cc1
- EC50: > 14.8 µM
- IC50: > 14.8 µM

SMILES: CCN(CC)[Se]c1ccccc1
- outcome: inactive

SMILES: COC(=O)C1Cc2c([nH]c3ccccc23)C(c2ccccc2O)N1 (stereo unspecified)
- outcome: inactive

SMILES: CSc1nc2c(nc(C)c(=O)n2C2OCC(OC(C)=O)C(OC(C)=O)C2OC(C)=O)c(=O)[nH]1 (stereo unspecified)
- EC50: > 513 µM
- IC50: > 513 µM

SMILES: COc1cc(/C=C2/SC(c3ccccc3)N(c3ccc(Cl)cc3)C2=O)cc(OC)c1OC (stereo unspecified)
- outcome: inactive

SMILES: COc1cc(N)c2c(c1)SCC(=O)N2
- EC50: > 200 µM
- IC50: 148 µM
